Assay results from patent US4361573A, “α,α-Diaryl-β-(tert-amino)-propanols and diuretic pharmaceutical compositions containing them” (Temmler AG, priority 1974, dated 1982).
Where two headings read alike, the source gives them in different places.

How the values were obtained:
[1] = saluretic efficiency test in rats: elimination of water, sodium, chloride and potassium in 6 h urine after oral dosing; format: in vivo; conditions: rats, oral; for change in vivo at 40 µmol/kg / change in vivo at 80 µmol/kg: Rattus norvegicus
Method: In order to test the saluretic efficiency of the compounds of the invention rats having a weight of 150 to 200 g were used. The animals were kept without food, but not without drinking water, for 15 hours before the beginning of the test. The test substances were administered to groups of four rats, of substantially equal weight, with a rigid stomach probe in a 1% methyl cellulose slime. The dose required per 100 g animal (unit dosage in μmol/kg body weight) was contained in one ml. Following the administration of the substance the rats were given 5 ml 0.9% sodium chloride solution per 100 g body weight p.o. and placed in a diuresis funnel after manually emptying the bladder. Urine was collected for 6 hours in an airconditioned chamber at 24°±1° C. and a relative air humidity of 50±5%. The diuretic effect of a particular dose was tested on at least two, but more frequently however on four to eight groups of rats. Two sodium chloride controls were also used for each test day.
At the end of the collecting periods the volumes of urine discharged per group were noted and the pH value and also the content of sodium, potassium (flame-photometrically) and chloride (measured argentometrically with the determination of the end point potentiometrically) were determined.
From the analysis results the quantities of Na^+, K^+ and Cl^- eliminated were calculated in […] body weight, and the values thus obtained compared with those of the control animals.
Means values and twice the standard deviation were calculated from the data for the sodium chloride controls, in order to determine the normal range. Then, for the values found with the test substances, the percentage variations from the average in respect of these parameters were calculated and tabulated. In this connection, with the results given in Table 1, the upper limit of the normal range, which is defined as the mean value plus twice the standard deviation, was selected as the reference quantity for the variations. In this way relevant hyper-eliminations could clearly be recognised.
In Table 2, the mean percentage variations in potassium elimination after administration of the compounds in accordance with the invention are compared with the mean value of the potassium elimination in the case of the sodium chloride controls. At the same time the […] ratio is given which provides conclusive evidence of the effective saluretic property. The larger this quotient is, then the more sodium than potassium is eliminated in proportion.

[2] = comparison of toxicity in mice: oral LD50 by the Lichtfiel & Wilcoxon method; format: in vivo; conditions: mouse, in vivo, observation period 7 days, 95% confidence limit in brackets, read-out: LD50
Excerpt: In Table 3 the mean lethal doses for mice, administered orally (LD50 determination by the […] & WILCOXON method - J.Pharmacol. Exp. Ther. 96,98 (1949)) are compared.

[3] = 6 h, 40 μmol/kg body wt., relative to mean K+ elimination of the controls, read-out: Mean percentage variation in the elimination of potassium
[4] = 6 h, 80 μmol/kg body wt., relative to mean K+ elimination of the controls, read-out: Mean percentage variation in the elimination of potassium
[5] = 40 μmol/kg body wt., deviation from control mean plus twice the standard deviation, 6 h urine, read-out: Mean percentage variation in the elimination of Chloride
[6] = 40 μmol/kg body wt., deviation from control mean plus twice the standard deviation, 6 h urine, read-out: Mean percentage variation in the elimination of H2O
[7] = 40 μmol/kg body wt., deviation from control mean plus twice the standard deviation, 6 h urine, read-out: Mean percentage variation in the elimination of Sodium
[8] = 80 μmol/kg body wt., deviation from control mean plus twice the standard deviation, 6 h urine, read-out: Mean percentage variation in the elimination of Chloride
[9] = 80 μmol/kg body wt., deviation from control mean plus twice the standard deviation, 6 h urine, read-out: Mean percentage variation in the elimination of H2O
[10] = 80 μmol/kg body wt., deviation from control mean plus twice the standard deviation, 6 h urine, read-out: Mean percentage variation in the elimination of Sodium

`COc1ccc(C(O)(c2cc(C(C)C)c(OC)c(C(C)C)c2)C(C)N2CCCCC2)cc1OC` (stereo not drawn) [T 1882, 1-(4'-methoxy-3',5'-diisopropylphenyl)-1-(3",4"-dimethoxyphenyl)-2-piperidino-propan-1-ol] showed a change in vivo at 40 µmol/kg [1, 3] of 13.3%, a change in vivo at 80 µmol/kg [1, 4] of -12.2% and a change in vivo at 40 µmol/kg [1, 5] of 6.3%. It also gave a change in vivo at 40 µmol/kg [1, 6] of 17.7%, a change in vivo at 40 µmol/kg [1, 7] of 24.4% and a change in vivo at 80 µmol/kg [1, 8] of -4.4%. The change in vivo at 80 µmol/kg [1, 9] was 7.5%, the change in vivo at 80 µmol/kg [1, 10] was 9.5% and the “Quotient Na/K” value ([1]; 40 μmol/kg body wt.) was 6.52. For the same compound, the “Quotient Na/K” value ([1]; 80 μmol/kg body wt.) was 7.41 and the LD50 [2] was 3400 mg/kg.

`CCCC(C)(C)c1cc(C)c(OC)c(C(O)(c2ccccc2)C(C)N2CCCC2)c1` (stereo not drawn) [T 2111, 1-(2'-methoxy-3'-methyl-5'-tertiary-hexylphenyl)-1-phenyl-2-pyrrolidino-propan-1-ol] showed a change in vivo at 40 µmol/kg [1, 3] of 19.4%, a change in vivo at 80 µmol/kg [1, 4] of -7.1% and a change in vivo at 40 µmol/kg [1, 5] of 9.5%. The change in vivo at 40 µmol/kg [1, 6] was 36.8%, the change in vivo at 40 µmol/kg [1, 7] was 33.5% and the change in vivo at 80 µmol/kg [1, 8] was 23.4%. The change in vivo at 80 µmol/kg [1, 9] was 33.8%, the change in vivo at 80 µmol/kg [1, 10] was 37.1% and the “Quotient Na/K” value ([1]; 40 μmol/kg body wt.) was 6.64. The “Quotient Na/K” value ([1]; 80 μmol/kg body wt.) was 8.77 and the LD50 [2] was 4450 mg/kg.

In the case of `Cc1c(C(O)(c2ccccc2)C(C)N2CCCCC2)cc2c(c1C)OCCC2` (stereo not drawn) [T 2129, 1-(7',8'-dimethylchromanyl-(6'))-1-phenyl-2-piperidino-propan-1-ol], the change in vivo at 40 µmol/kg [1, 3] is reported as 12.3%, the change in vivo at 80 µmol/kg [1, 4] is reported as 35.7% and the change in vivo at 40 µmol/kg [1, 5] is reported as 12.4%. It also gave a change in vivo at 40 µmol/kg [1, 6] of 23.9%, a change in vivo at 40 µmol/kg [1, 7] of 32.6% and a change in vivo at 80 µmol/kg [1, 8] of 22%. For the same compound, the change in vivo at 80 µmol/kg [1, 9] was 21.3%, the change in vivo at 80 µmol/kg [1, 10] was 19.4% and the “Quotient Na/K” value ([1]; 40 μmol/kg body wt.) was 7.02. The “Quotient Na/K” value ([1]; 80 μmol/kg body wt.) was 5.23 and the LD50 [2] was over 3200 mg/kg.

For `COc1ccc(C(O)(c2cc(C(C)C)c(OC)c(C(C)C)c2)C(C)N2CCCCC2)cc1` (stereo not drawn) [T 2237, 1-(4'-methoxy-3',5'-diisopropylphenyl)-1-(4"-methoxyphenyl)-2-piperidino-propan-1-ol], the change in vivo at 40 µmol/kg [1, 3] was 13.3%, the change in vivo at 80 µmol/kg [1, 4] was 19.4% and the change in vivo at 40 µmol/kg [1, 5] was 24.3%. The change in vivo at 40 µmol/kg [1, 6] was 40.8%, the change in vivo at 40 µmol/kg [1, 7] was 32.1% and the change in vivo at 80 µmol/kg [1, 8] was 57.1%. For the same compound, the change in vivo at 80 µmol/kg [1, 9] was 67.9%, the change in vivo at 80 µmol/kg [1, 10] was 59.8% and the “Quotient Na/K” value ([1]; 40 μmol/kg body wt.) was 6.93. For the same compound, the “Quotient Na/K” value ([1]; 80 μmol/kg body wt.) was 7.95 and the LD50 [2] was over 6400 mg/kg.

In the case of `CCOc1ccc(C(O)(c2cc(C(C)C)c(OC)c(C(C)C)c2)C(C)N2CCCCC2)cc1` (stereo not drawn) [T 2258, 1-(4'-methoxy-3',5'-diisopropylphenyl)-1-(4"-ethoxyphenyl)-2-piperidino-propan-1-ol], the change in vivo at 40 µmol/kg [1, 3] is reported as 19.4%, the change in vivo at 80 µmol/kg [1, 4] is reported as 1% and the change in vivo at 40 µmol/kg [1, 5] is reported as 12.8%. The change in vivo at 40 µmol/kg [1, 6] was 28.1%, the change in vivo at 40 µmol/kg [1, 7] was 22.9% and the change in vivo at 80 µmol/kg [1, 8] was 17.3%. For the same compound, the change in vivo at 80 µmol/kg [1, 9] was 32.3%, the change in vivo at 80 µmol/kg [1, 10] was 24.6% and the “Quotient Na/K” value ([1]; 40 μmol/kg body wt.) was 6.11. The “Quotient Na/K” value ([1]; 80 μmol/kg body wt.) was 7.32 and the LD50 [2] was over 4500 mg/kg.

For `COc1ccc(C(C)(C)C)cc1C(O)(c1ccccc1)C(C)N1CCCCC1` (stereo not drawn) [T 2259, 1-(2'-methoxy-5'-tertiary-butylphenyl)-1-phenyl-2-piperidino-propan-1-ol], the change in vivo at 40 µmol/kg [1, 3] was 19.4%, the change in vivo at 80 µmol/kg [1, 4] was 38.8% and the change in vivo at 40 µmol/kg [1, 5] was 94%. The change in vivo at 40 µmol/kg [1, 6] was 46.5%, the change in vivo at 40 µmol/kg [1, 7] was 28.7% and the change in vivo at 80 µmol/kg [1, 8] was 110%. The change in vivo at 80 µmol/kg [1, 9] was 76.6%, the change in vivo at 80 µmol/kg [1, 10] was 59.8% and the “Quotient Na/K” value ([1]; 40 μmol/kg body wt.) was 6.40. For the same compound, the “Quotient Na/K” value ([1]; 80 μmol/kg body wt.) was 6.84 and the LD50 [2] was 560 mg/kg.
